Source: patent publication US7915198B2, “Aqueous solution of non-colloidal silicic acid and boric acid” (Sabalo, N.V., priority 2002, dated 2011)

Legend:
[1] = tested on: Phytophthora infestan; format: in vivo, potato plants (strain Bintje)
Description: (§1) Solutions of boric acid in water were prepared containing different concentrations of boric acid: 1%, 0.1%, 0.03%, 0.01%, 0.005%, 0.0003% and 0.0001% (W/V). Sodium silicate (10% Si) was diluted tenfold in water and further 1000 times diluted in the solutions or in water with pH 4.5 after dilution, resulting in a final silicon concentration of 0.0010 wt. % (or 10 μg/ml Si)
(§2) All solutions were filtered on a 0.1μ membrane filter. […] The solutions were used instantaneously. A potato garden was used to test the compounds against infection with Phytophthora infestan: 20 m^2 culture were used for testing and each m^2 contained 6 potato plants (strain Bintje) of two months old. Two times a week plant leaves were sprayed with the different solutions (about 10 liters/are). Four square meters were used as placebo.

[2] = tested on: potato plants (strain Bintje)
Description: as §1, §2

OB(O)O [boric acid]
antifungal effect ([1]; 1%, 0.1% and 0.03% boric acid): no antifungal effect | fungal infection ([1]; From 0.003% boric acid on): fungal infection decreased | toxic reactions (necrotic effects on leaves such as black spots, holes) ([2]; 1%, 0.1% and 0.03% boric acid, after 1 week treatment): toxic reactions | strength of plant leaves ([2]; From 0.003% boric acid on): plant leaves were stronger
